# Biological target: T1, P2Y12 receptor (Homo sapiens, UniProt Q9H244)
# T1 construct: expressed in transfected cells; host or cells: CHO cells (membranes)
# Experiment: Functional inhibition of 2-Me-S-ADP induced P2Y12 signalling (35S-GTPγS binding, membranes from P2Y12 transfected CHO-cells)
# Type: biochemical
# Settings: 35S-GTPγS, EC80 of 2-methyl-thio-adenosine diphosphate, P2Y12 CHO membranes; value given in each example; read-out: GTPγS(IC50 μM)
# Method: Functional inhibition of- the P2Y12 receptor can be measured by in vitro assays using cell membranes from P2Y12 transfected CHO-cells, the methodology is indicated below.
# Functional inhibition of 2-Me-S-ADP induced P2Y12 signalling: 5 μg of membranes were diluted in 200 μl of 200 mM NaCl, 1 mM MgCl2, 50 mM HEPES (pH 7.4), 0.01% BSA, 30 μg/ml saponin and 10 μM GDP. To this was added an EC80 concentration of agonist (2-methyl-thio-adenosine diphosphate), the required concentration of test compound and 0.1 μCi ^35S-GTPγS. The reaction was allowed to proceed at 30° C. for 45 min. Samples were then transferred on to GF/B filters using a cell harvester and washed with wash buffer (50 mM Tris (pH 7.4), 5 mM MgCl2, 50 mM NaCl). Filters were then covered with scintilant and counted for the amount of ^35S-GTPγS retained by the filter. Maximum activity was that determined in the presence of the agonist and minimum activity in the absence of the agonist following subtraction of the value determined for non-specific activity. The effect of compounds at various concentrations was plotted according to the equation
# y=A+((B−A)/(1+((C/x)̂D)))
# and IC50 estimated where A is the bottom plateau of the curve i.e. the final minimum y value B is the top of the plateau of the curve i.e. the final maximum y value C is the x value at the middle of the curve. This represents the log EC50 value when A+B=100 D is the slope factor. x is the original known x values. Y is the original known y values.
# T1 sequence (Q9H244 whole entry): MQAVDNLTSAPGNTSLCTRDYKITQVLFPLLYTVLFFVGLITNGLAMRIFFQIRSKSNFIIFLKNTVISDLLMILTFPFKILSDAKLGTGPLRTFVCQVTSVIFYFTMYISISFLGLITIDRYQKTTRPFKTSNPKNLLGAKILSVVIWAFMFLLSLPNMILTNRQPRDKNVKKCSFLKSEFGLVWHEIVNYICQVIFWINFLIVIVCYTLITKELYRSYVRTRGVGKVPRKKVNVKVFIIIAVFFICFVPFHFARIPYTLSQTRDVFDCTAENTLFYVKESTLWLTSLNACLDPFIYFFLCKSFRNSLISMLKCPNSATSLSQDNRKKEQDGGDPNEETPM
row,Compound,IC50
1,"CC(=O)c1cc(C#N)c(N2CCC(C(=O)NS(=O)(=O)Cc3ccccc3)CC2)nc1CN1CCCCC1=O [Example 3, 1-{5-Acetyl-3-cyano-6-[(2-oxopiperidin-1-yl)methyl]pyridin-2-yl}-N-(benzylsulfonyl)piperidine-4-carboxamide]",1.65 µM
2,"CCCC(=O)c1cc(C#N)c(N2CCC(C(=O)NS(=O)(=O)N(C)c3ccc(F)cc3)CC2)nc1CN1CCCC1=O [Example 33, 1-{5-Butyryl-3-cyano-6-[(2-oxopyrrolidin-1-yl)methyl]pyridin-2-yl}-N-{[(4-fluorophenyl)(methyl)amino]sulfonyl}piperidine-4-carboxamide]",0.011 µM
3,"CCCC(=O)c1cc(Cl)c(N2CCC(C(=O)NS(=O)(=O)Cc3ccc(F)cc3F)CC2)nc1CN1CCCC1=O [Example 53, 1-{5-butyryl-3-chloro-6-[(2-oxopyrrolidin-1-yl)methyl]pyridin-2-yl}-N-[(2,4-difluorobenzyl)sulfonyl]piperidine-4-carboxamide]",0.032 µM
4,"CCCC(=O)c1cc(C#N)c(N2CCC(C(=O)N(C)S(=O)(=O)CC3CCCC3)CC2)nc1CN1CCCC1=O [Example 70, 1-{5-Butyryl-3-cyano-6-[(2-oxopyrrolidin-1-yl)methyl]pyridin-2-yl}-N-[(cyclopentylmethyl)sulfonyl]-N-methylpiperidine-4-carboxamide]",0.903 µM
5,"CCCC(=O)c1cc(Cl)c(N2CCC(C(=O)NS(=O)(=O)Cc3ccccc3)CC2)nc1CN1CCCCC1=O [Example 66, N-(benzylsulfonyl)-1-{5-butyryl-3-chloro-6-[(2-oxopiperidin-1-yl)methyl]pyridin-2-yl}piperidine-4-carboxamide]",0.252 µM
6,"CCCCC(=O)c1cc(C#N)c(N2CCC(C(=O)NS(=O)(=O)CC3CCCC3)CC2)nc1CN1CCCC1=O [Example 17, 1-{3-Cyano-6-[(2-oxopyrrolidin-1-yl)methyl]-5-pentanoylpyridin-2-yl}-N-[(cyclopentylmethyl)sulfonyl]piperidine-4-carboxamide]",0.029 µM
7,"C=CCCC(=O)c1cc(C#N)c(N2CCC(C(=O)NS(=O)(=O)N(C)c3ccccc3)CC2)nc1CN1CCCC1=O [Example 29, 1-{3-cyano-6-[(2-oxopyrrolidin-1-yl)methyl]-5-pent-4-enoylpyridin-2-yl}-N-{[methyl(phenyl)amino]sulfonyl}piperidine-4-carboxamide]",0.013 µM
8,"CCCC(=O)c1cc(Cl)c(N2CCC(C(=O)N(C)S(=O)(=O)N(C)c3ccc(F)cc3)CC2)nc1CN1CCCC1=O [Example 69, 1-{5-Butyryl-3-chloro-6-[(2-oxopyrrolidin-1-yl)methyl]pyridin-2-yl}-N-{[(4-fluorophenyl)(methyl)amino]sulfonyl}-N-methylpiperidine-4-carboxamide]",3.67 µM
9,"CCCCC(=O)c1cc(Cl)c(N2CCC(C(=O)NS(=O)(=O)CC3CCCC3)CC2)nc1CN1CCCC1=O [Example 54, 1-{3-chloro-6-[(2-oxopyrrolidin-1-yl)methyl]-5-pentanoylpyridin-2-yl}-N-[(cyclopentylmethyl)sulfonyl]piperidine-4-carboxamide]",0.938 µM
10,"CCCCC(=O)c1cc(Cl)c(N2CCC(C(=O)NS(=O)(=O)C(C)c3ccccc3)CC2)nc1CN1CCCC1=O (stereo not shown) [Example 60, 1-{3-chloro-6-[(2-oxopyrrolidin-1-yl)methyl]-5-pentanoylpyridin-2-yl}-N-[(1-phenylethyl)sulfonyl]piperidine-4-carboxamide]",0.268 µM
11,"CCCCC(=O)c1cc(C#N)c(N2CCC(C(=O)NS(=O)(=O)Cc3ccc(F)cc3F)CC2)nc1CN1CCCC1=O [Example 20, 1-{3-Cyano-6-[(2-oxopyrrolidin-1-yl)methyl]-5-pentanoylpyridin-2-yl}-N-[(2,4-difluorobenzyl)sulfonyl]piperidine-4-carboxamide]",0.013 µM
12,"N#Cc1cc(C(=O)CCC(F)(F)F)c(CN2CCCC2=O)nc1N1CCC(C(=O)NS(=O)(=O)CC2CCCC2)CC1 [Example 44, 1-{3-cyano-6-[(2-oxopyrrolidin-1-yl)methyl]-5-(4,4,4-trifluorobutanoyl)pyridin-2-yl}-N-[(cyclopentylmethyl)sulfonyl]piperidine-4-carboxamide]",0.146 µM
13,"CCCCC(=O)c1cc(Cl)c(N2CCC(C(=O)NS(=O)(=O)Cc3ccccc3)CC2)nc1CN1CCCC1=O [Example 57, N-(benzylsulfonyl)-1-{3-chloro-6-[(2-oxopyrrolidin-1-yl)methyl]-5-pentanoylpyridin-2-yl}piperidine-4-carboxamide]",0.079 µM
14,"C=CCCC(=O)c1cc(Cl)c(N2CCC(C(=O)NS(=O)(=O)N(C)c3ccc(F)cc3)CC2)nc1CN1CCCC1=O [Example 50, 1-{3-chloro-6-[(2-oxopyrrolidin-1-yl)methyl]-5-pent-4-enoylpyridin-2-yl}-N-{[(4-fluorophenyl)(methyl)amino]sulfonyl}piperidine-4-carboxamide]",0.167 µM
15,"CCc1cnc(-c2cc(C#N)c(N3CCC(C(=O)NS(=O)(=O)Cc4ccccc4)CC3)nc2CN2CCCC2=O)o1 [Example 63, N-(benzylsulfonyl)-1-{3-cyano-5-(5-ethyl-1,3-oxazol-2-yl)-6-[(2-oxopyrrolidin-1-yl)methyl]pyridin-2-yl}piperidine-4-carboxamide]",0.021 µM
16,"CN(c1ccc(F)cc1)S(=O)(=O)NC(=O)C1CCN(c2nc(CN3CCCC3=O)c(C(=O)CCC(F)(F)F)cc2C#N)CC1 [Example 45, 1-{3-cyano-6-[(2-oxopyrrolidin-1-yl)methyl]-5-(4,4,4-trifluorobutanoyl)pyridin-2-yl}-N-{[(4-fluorophenyl)(methyl)amino]sulfonyl}piperidine-4-carboxamide]",0.05 µM
